Experimental findings from patent publication US20220162238A1, “FATTY ACID COMPOSITION AND APPLICATION THEREOF” (SICHUAN GOWELL PHARMACEUTICAL CO., LTD., priority 2019, published 2022) are described below.

Assay [1] concerns OXZ-induced mouse IBD model. Put plainly: OXZ-induced mouse IBD model (Example 16). It counts as in vivo, Balb/c mice. The conditions noted are these: 500 mg/kg intragastrically once a day, 6 days. The method, then:
1. Animals: Balb/c mice, male (20-22 g); 10 mice per group.
(§1) (1) Normal control group (control group): 0.5 wt % sodium carboxymethyl cellulose was administered intragastrically.
(§2) (2) IBD model group (model group): 0.5 wt % sodium carboxymethyl cellulose was administered intragastrically.
(3) Positive drug sulfasalazine group (SASP group): Dosage: 500 mg/kg, prepared with 0.5 wt % sodium carboxymethyl cellulose; stored at 4° C. and administered intragastrically once a day.
Balb/c mice were adaptively fed in an SPF animal room for one week and then grouped randomly. The mice in the model group and the administration groups were constructed as an IBD mouse model with OXZ by entrusting to the Institute of Materia Medica, Chinese Academy of Medical Sciences. Then, the administration was performed for 6 consecutive days; the normal control group was not treated. The normal control group and the model group were intragastrically administered with 0.5 wt % sodium carboxymethylcellulose, once a day. SASP group and test groups 1 to 2 were administrated intragastrically according to the above experimental scheme, once a day. Animals in each group were sacrificed on day 6 of modeling, and various indicators related to colitis were tested (see the section of Experimental results).

The test system of another assay is IBD mouse model with DSS. In words: DSS-induced IBD mouse model (Example 14). It counts as in vivo, C57BL/6J mice. Particulars: 500 mg/kg intragastrically once a day; 6 days of DSS modeling. The protocol: as §1, §2
(3) Positive drug sulfasalazine group (SASP group): sulfasalazine enteric-coated tablets; dosage: 500 mg/kg, prepared with 0.5 wt % sodium carboxymethyl cellulose; stored at 4° C. and administered intragastrically once a day.
The mice in the model group and the administration groups were constructed as an IBD mouse model with DSS (MP, CA9011-18-1, US, keeping away from light) by entrusting to the Institute of Materia Medica, Chinese Academy of Medical Sciences. The mice in the normal control group were not treated. The normal control group and model group were administered with 0.5 wt % sodium carboxymethyl cellulose intragastrically, once a day. The SASP group and the test group were administered intragastrically according to the above experimental scheme, once a day. […] The animals in each group were sacrificed, and each evaluation indicator of colitis (see the section of Experiment results) was tested, and the anti-IBD pharmacodynamic activity of each test sample was evaluated comprehensively.

The test system of assay [2] is TNBS-induced rat IBD model. Put plainly: TNBS-induced rat IBD model (Example 15). The format is in vivo, SD rats. The protocol: (1) Normal control group (control group): 0.5 wt % sodium carboxymethyl cellulose (CMC-Na) was administered intragastrically.
as §2
(3) Positive drug sulfasalazine group (SASP group): sulfasalazine enteric-coated tablets, dosage: 600 mg/kg, prepared with 0.5% sodium carboxymethyl cellulose; administered intragastrically once a day.
3. Experimental method: After being fasted but water allowed for about 24 hours, rats in each group were anesthetized by intraperitoneal injection of 3% sodium pentobarbital solution, and a plastic tube with a diameter of 2 mm and a length of about 12 cm was gently inserted into the rat body via the anus for about 8 cm deep. The ethanol solution containing TNBS was slowly injected with the dose of TNBS 75 mg/kg and the administration volume of 3 mL/kg body weight, and then about 0.1 mL of air was injected to discharge the medicine remained in the plastic tube into intestine. After the administration, the plastic tube was slowly pulled out, the anus was pinched with hand, and the tail of the rat was lifted and kept upside down for about 30 s, so that the modeling agent can fully penetrate into the intestinal cavity of the rat. The normal control group was injected with the same amount of normal saline, Based on the body weight thereof, 75 TNBS modeled rats were randomly divided into model group, positive drug group (sulfasalazine 600 mg/kg body weight), test groups 1 to 3, 15 rats/group, and a normal control group was set up, in which 15 rats were included. On the second day after modeling, the corresponding test samples were administered intragastrically. The normal control group and the model group were administered with 0.5 wt % CMC-Na once a day for 5 consecutive days. DAI activity score was performed on days 1 and 3 of administration and 24 hours after the last administration. Intestinal mucosal damage was observed 24 hours after the last administration for CMDI scoring. The colon tissue was taken for histopathological examination.

Assay [3] concerns DSS-induced IBD mouse model. In words: DSS-induced IBD mouse model (Example 10). The format is in vivo, C57BL/6J mice. Particulars: 500 mg/kg intragastrically once a day. The protocol:
1. Animals: C57BL/6J mice, male (18-20 g); 10 mice per group; purchased from Beijing Huafukang Biotechnology Co., Ltd.; license number: SCXK (Beijing) 2014-0004
as §1
(2) IBC model group (model group): 0.5 wt % sodium carboxymethyl cellulose was administered intragastrically.
(3) Positive drug sulfasalazine group (SASP group): Shanghai Sinepharm Factory Co., Ltd. (batch number: 036151102); dosage: 500 mg/kg, prepared with 0.5 wt % sodium carboxymethyl cellulose, stored at 4° C., administered intragastrically once a day.
(4) Test group: the fatty acid compositions of Examples 1 to 9, dosage: 500 mg/kg, prepared with 0.5 wt % sodium carboxymethyl cellulose, stored at 4° C., administered intragastrically once a day.
For the convenience of experimental operation, two experiments were conducted. The fatty acid compositions of Examples 1 to 5 were used for the first experiment; the fatty acid compositions of Examples 6 to 9 were used for the second experiment. Both experiments were operated according to the following methods. C57BL/6J mice were adaptively fed in an SPF animal room (laboratory animal license number: SYXK (Beijing) 2014-0023) for one week, and then randomly grouped. The mice in the model group and the administration groups were constructed as an IBC mouse model with DSS (MP, CA9011-18-1, US) by entrusting to the Institute of Materia Medica, Chinese Academy of Medical Sciences. The mice in the normal control group were not treated. The normal control group (control group) and model group (model group) were administered with 0.5 wt % sodium carboxymethyl cellulose intragastrically, once a day, with an administration volume of 10 mL/kg. The SASP group and the test group were administered intragastrically according to the above experimental scheme, once a day. […] The animals in each group were sacrificed, and each evaluation indicator of colitis was tested (see the section of Experiment results), and the anti-IBD pharmacodynamic activity of each test sample was evaluated comprehensively.
The DAI scoring criteria were as follows:
The histopathology scoring criteria table was as follows: […]

Setting [4] is: SASP 600 mg/kg, Example 4 at 150, 300 and 600 mg/kg.

SMILES strings stand for the structures. Marks after values point to notes of the source that are not given here.

Turning to `O=C(O)c1cc(/N=N/c2ccc(S(=O)(=O)Nc3ccccn3)cc2)ccc1O` [Positive drug, sulfasalazine], in assay [1], the “DAI composite index inhibition rate (%)” value was determined as 50% and the histopathological score was found to be 4.38 ± 0.42. The “DAI comprehensive index inhibition rate (%)” value in the assay with IBD mouse model with DSS was 38.7^# %. In assay [2] (600 mg/kg, model group 6 cases of 15), the “histopathological examination: cases with histological changes of the colon” value is 5 cases of 15 cases. Moreover, in assay [2] (setting [4]), the “degree of colon histological lesions vs. model group” value is “significantly reduced compared with the model group”; the “symptoms of sparse stools and bloody stools during the administration period” value is listed as “alleviated until disappeared”. Also, the DAI score value result in assay [2] (d6, 600 mg/kg intragastrically once a day for 5 days, p<0.05) is “lower”. In assay [2] (d6, 600 mg/kg intragastrically once a day, p<0.05), the CMDI score value entry is “lower”. Also, in assay [3] (first experiment), the “anti-IBD activity / colon tissue damage (in words)” value is “effectively improve the colon tissue damage” and the “disease comprehensive index DAI score vs. model group (in words)” value is on record as “reduce the disease comprehensive index DAI score of the experimental animal significantly”. Moreover, in assay [3] (first experiment, 7 days of DSS modeling), the “DAI comprehensive index inhibition rate (%)” value is 23.08^# %. The same compound showed a histopathological score in assay [3] (first experiment, 7 days of DSS modeling, lower is closer to normal) of 7.25 ± 2.14. Further, the “anti-IBD activity / colon tissue damage (in words)” value in assay [3] (second experiment) is recorded as “slightly improve the colon tissue damage”.
